Tests used:
Sarcocystis neurona = assay: Microtiter Monolayer Disruption Assay (MMDA), inhibition of BT cell destruction by S. neurona; format: cell-based; conditions: 10 μg/mL, read-out: Percent Inhibition of Cell Destruction
Experimental: (§1) In order to determine the scope of protection provided by Ponazuril, in vitro testing was conducted. The following strains of parasites were evaluated for their sensitivity to this compound: Strain SN3 of Sarcocystis neurona; strain SF1 of Sarcocystis falcatula; strain RH of Toxoplasma gondii; and the NC-1 strain of Neospora caninum. Ponazuril was tested at concentrations (1 μg/mL and 10 μg/mL).
(§2) Bovine turbinate (BT) cells were used for all in vitro studies. Cells were grown to confluency in 25 cm^2 flasks in RMPI 1640 media supplemented with 10% v/v fetal bovine serum (FBS), 100 Units penicillin (G/mL), […] and 5×10^-2 mM 2-mercpatoethanol. After cell confluence was obtained, cells were maintained in the same media with reduced FBS (2% v/v). Cell cultures were incubated at 37° C. in a humidified atmosphere containing 5% carbon dioxide and 95% air. […]
(§3) The assay used to determine the effectiveness of Ponazuril was the Microtiter Monolayer Disruption Assay (MMDA). […] Flat bottomed 96-well microtiter plates were inoculated with BT cells and the resulting monolayers were used to determine the effects of Toltrazuril and Ponazuril on merozoite production as measured by CPE (plaque formation). […]

EPM-Infected Horses = assay: Response of EPM-infected horses to treatment (clinical score); format: in vivo
Experimental: The compound was formulated into a paste using Ponazuril as a 15% active ingredient (a.i.) as described in EXAMPLE 1. It was administered to horses already diagnosed with EPM once a day for 28 days at a dose rate between 2.5 mg/Kg and 10 mg/Kg.
Naturally occurring clinical cases of EPM were well characterized by signalment and laboratory diagnosis. The diagnosis used for incorporation of EPM-positive horses into this trial was as follows: Confirmed asymmetrical neurological deficit as determined by a standardized neurological examination, to include radiography, indicative of EPM; Positive Western Blot for Sarcocystis neurona IgG; Red Blood Cell count below 500 cells/mL; CSF indices--Total Protein <90, IgG index >0.3. AQ quotient <2.2.
Additional requirements were that the horses were not suffering from diseases other than EPM. Therefore, they had to meet the following criteria: Negative CSF (<1:4) for EHV-1; Normal serum values for Vitamin E (.2.0 μg/mL); Lack of seizure disorders; Lack of behavior disorders.
Diagnosed horses were randomly assigned to groups. Group 1 horses received the paste formulation daily at a dose rate of 5mg/Kg whereas Group 2 horses received the paste formulation daily at a dose rate of 10 mg/Kg. The treatment dose was based on body weight. The horses were evaluated for a period of 90 days (approximately 60 days after discontinuation of treatment) in order to determine that treatment was indeed effective. The response to treatment was scored using the following system: 1) 0=complete success-clinically normal with a negative CSF; 2) 1=Deficit just detected at a normal gait; 3) 2=Deficit easily detected and exaggerated by backing, turning, swaying, jaw loin pressure and neck extension; 4) 3=Deficit very prominent on walking, Facial turning, loin pressure or neck extension; 5) 4=Stumbling, tripping and falling down spontaneously; 6) 5=Recumbent, unable to rise. An improvement of one (1) unit in the score was considered a significant improvement.

Neospora caninum NC-1 = assay: Microtiter Monolayer Disruption Assay (MMDA), inhibition of BT cell destruction by N. caninum; format: cell-based; conditions: 1.0 μg/mL, read-out: Percent Inhibition of Cell Destruction
Experimental: as §1, §2, §3

[1] = Pharmacokinetics of a single oral dose of Toltrazuril in horses (blood levels); format: in vivo; conditions: horses receiving single oral 10 mg/kg Toltrazuril
Experimental: A pharmacokinetic study was conducted in horses comparing blood levels of Toltrazuril, Ponazuril and Toltrazuril Sulfoxide at various times post a single dose of Toltrazuril. All horses received a single dose of 10 mg/kg, which was administered orally as a suspension. Blood samples were drawn at the time of treatment (0) and at 0.25, 0.5, 1, 2, 4, 6, 12, 24, 48 and 72 hours post treatment. […] This was an indication that Ponazuril, alone, would produce acceptable blood levels that are envisioned to pass the blood-brain barrier, a characteristic required to treat neurological diseases such as those caused by Sarcocystis neurona, Toxoplasma gondii, Neospora caninum and Neospora heugesi.

[2] = Safety and effectiveness of a single high dose; format: in vivo; conditions: doses as high as 100 mg/Kg body weight
Experimental: For the single high dose treatment the triazineone is administered in pharmaceutically effective amounts that are greater than 10 mg/Kg and up to about 100 mg/Kg. It is a distinct feature of the invention the compounds of this invention can be non-toxic, thus they can be administrated at high dose levels. The advantage of the high dose administration resides in the fact repeated doses are not required.

Sarcocystis falcatula = assay: Microtiter Monolayer Disruption Assay (MMDA), inhibition of BT cell destruction by S. falcatula; format: cell-based; conditions: 1 μg/mL, read-out: Percent Inhibition of Cell Destruction
Experimental: as §1, §2, §3

[3] = Cerebral spinal fluid drug levels / passage of blood-brain barrier after repeated doses of Toltrazuril in horses; format: in vivo; conditions: horses
Experimental: This experiment was conducted in order to determine whether triazineones such as Toltrazuril can pass the blood-brain barrier. Normal horses were divided into three groups of three horses per group. Group 1 horses received Toltrazuril administered orally as a 5% suspension at a dose level of 2.5 mg/Kg. Group 2 horses received Toltrazuril administered orally as a 5% suspension at a dose level of 5.0 mg/Kg. Group 3 horses received Toltrazuril administered orally as a 5% suspension at a dose level of 7.5 mg/Kg. The dosing was repeated daily for 10 days. Blood samples were drawn at 48, 96 and 240 hours and the concentration of Toltrazuril, Toltrazuril sulfoxide and Ponazuril in the serum was measured. Ten days after the start of the treatment (Day 10), a sample of cerebral spinal fluid was removed from each horse and the concentrations of Toltrazuril, Toltrazuril Sulfoxide and Ponazuril were again measured in these samples. The concentrations of Toltrazuril, Toltrazuril Sulfoxide and Ponazuril in the serum and cerebral spinal fluid are reported in TABLES 5a and 5b.

Toxoplasma gondii = assay: Microtiter Monolayer Disruption Assay (MMDA), inhibition of BT cell destruction by T. gondii; format: cell-based; conditions: 1.0 μg/mL, read-out: Percent Inhibition of Cell Destruction
Experimental: as §1, §2, §3

[4] = system: Bovine turbinate (BT) cells; format: cell-based; conditions: uninfected agent treated BT cells
Experimental: Bovine turbinate (BT) cells were used for all in vitro studies. Cells were grown to confluency in 25 cm^2 flasks in RMPI 1640 media supplemented with 10% v/v fetal bovine serum (FBS), 100 Units penicillin (G/mL), […] and 5×10^-2 mM 2-mercpatoethanol. After cell confluence was obtained, cells were maintained in the same media with reduced FBS (2% v/v). Cell cultures were incubated at 37° C. in a humidified atmosphere containing 5% carbon dioxide and 95% air.
The assay used to determine the effectiveness of Ponazuril was the Microtiter Monolayer Disruption Assay (MMDA). This assay was used to determine if the parasites or compound were toxic for BT cells. Flat bottomed 96-well microtiter plates were inoculated with BT cells and the resulting monolayers were used to determine the effects of Toltrazuril and Ponazuril on merozoite production as measured by CPE (plaque formation). […]

[5] = after treatment with Toltrazuril

With Cc1cc(-n2c(=O)[nH]c(=O)n(C)c2=O)ccc1Oc1ccc(S(=O)(=O)C(F)(F)F)cc1 [Ponazuril] the inhibition at 10 µg/mL (Sarcocystis neurona) was 100%, the “Horses demonstrating acceptable improvement” value (EPM-Infected Horses; 5 mg/Kg dose, eight of nine horses) was 88.9% and the TOTAL clinical score (EPM-Infected Horses; 5 mg/Kg group, Day 0 (baseline)) was 17. The TOTAL clinical score (EPM-Infected Horses; 5 mg/Kg group, Day 28) was 13, the TOTAL clinical score (EPM-Infected Horses; 5 mg/Kg group, Day 90) was 6 and the “Horses showing significant improvement in clinical score” value (EPM-Infected Horses; 10 mg/Kg group, 28 days, by day 90 post start of treatment) was 100%. For the same compound, the TOTAL clinical score (EPM-Infected Horses; 10 mg/Kg group, Day 0 (baseline)) was 19, the TOTAL clinical score (EPM-Infected Horses; 10 mg/Kg group, Day 28) was 15 and the TOTAL clinical score (EPM-Infected Horses; 10 mg/Kg group, Day 90) was 4. The “Improvement in total scores, Group 1 (5 mg/Kg) versus Group 2 (10 mg/Kg)” value (EPM-Infected Horses; EPM horses, 5 vs 10 mg/Kg) was “approximately equivalent”, the “Effectiveness for active treatment of EPM” value (EPM-Infected Horses; at either 5 mg/Kg or 10 mg/Kg, horses) was “effective for the active treatment of EPM in horses” and the inhibition at 1 µg/mL (Neospora caninum NC-1) was 100%. The “Levels in serum / bloodstream (in words)” value [1] was “relatively high levels”, the Safety and effectiveness [2] was “both safe and effective” and the inhibition at 1 µg/mL (Sarcocystis falcatula) was 100%. For the same compound, the “Crossing of the blood-brain barrier” value ([3]; after oral Toltrazuril daily for 10 days) was “effectively cross the blood-brain barrier”, the “Concentration in cerebral spinal fluid relative to that of Toltrazuril” value [3, 5] was “essentially equivalent to the concentration of Toltrazuril itself” and the “Crossing of the blood-brain barrier compared with Toltrazuril” value [3, 5] was “crosses this barrier more effectively than does Toltrazuril”. The inhibition at 1 µg/mL (Toxoplasma gondii) was 100% and the “Toxicity to BT cells” value [4] was “not toxic to the BT cells”.
